# From patent US11560373B2, “Compounds and their use as PDE4 activators” (Mironid Limited, priority 2018, dated 2023)
# Biological target: T1, PDE4B2 (Homo sapiens, UniProt Q07343)
# T1 construct: the full length human PDE4B2 short isoform; made in house
# Assay: PDE assay, [3H]cAMP hydrolysis by HEK-PDE4B2 cell lysate cytosol fraction (short form)
# Format: biochemical
# Details: mean % increase in counts over basal activity
# Procedure: (§1) HEK 293 cells were transfected with pDEST™ PDE4 expression vectors using Lipofectamine LTX/Plus reagent (Invitrogen) as outlined by the manufacturer and clonal isolates expanded to obtain cell lines that stably expressed the full-length human PDE4D5, PDE4B1 and PDE4A4 long isoforms and the full length human PDE4B2 short isoform. These were called the HEK-PDE4D5, HEK-PDE4B1, HEK-PDE4A4 and HEK-PDE4B2 cell lines, respectively.
# (§2) HEK-PDE4D5 cells were seeded out in 100 mm plates and incubated at 37° C. in an atmosphere of 5% CO2, 95% air. Cell lysates were prepared using KHEM buffer [50 mM KCl, 10 mM EGTA, 50 mM HEPES (pH 7.2), 1.92 mM MgCl2].
# (§3) To prepare the cell lysates, the 100 mm plates containing the cells were placed on ice and washed with ice-cold PBS (phosphate buffered saline, pH 7.4). KHEM buffer (500 μl) was added to the cells. Cells were then scraped off the plate and triturated using a needle (BD Microlance™ 0.8, 40 mm). The lysed cells were then centrifuged at 2000 rpm for 10 minutes to remove cell debris and the supernatant (cell lysate containing recombinant PDE4D5) was transferred to a fresh tube and kept on ice.
# (§4) The cell lysate containing recombinant PDE4D5 was transferred into a centrifuge tube and placed into an ultracentrifuge (BECKMAN COULTER) and spun at high speed (100,000 g) for 30 minutes at 4° C. The cytosol fraction was then collected and its protein amount determined using a BCA protein assay.
# (§5) PDE assays were performed in thin walled V-bottomed 96-well plates. The assays were performed at a final concentration of 10 mM Tris/5 mM MgCl2 plus PDE4D5 cell lysate cytosol fraction, containing over-expressed PDE4D5, with and without test compound. The lysate/compound mix were incubated together for 15 min at room temperature on an orbital shaker prior to addition of [^3H] cAMP (final concentration 1 μM [^3H] cAMP; Perkin Elmer) to a final volume of 50 μl per reaction. The reactions were then incubated for 10 minutes at 30° C., terminated by heating for 2 min at 95° C. and allowed to cool. Snake venom (12.5 μl of 1 mg/ml; Crotalus atrox, Sigma) was then added and the plates were agitated and incubated for a further 15 minutes at 30° C. Dowex ion exchange resin (Sigma, chloride form, 200-400 mesh; 200 μl; prepared as a 1:1 Dowex: water stock, thoroughly re-suspended and diluted 2:1 with ethanol) was then added to each well and the plates incubated for 15 min at room temperature on an orbital shaker ensuring sufficient agitation for resin suspension (550 RPM). The reaction mixture was then transferred to a 96 well filter plate (Millipore; […] pore size) and filtered into a receiving 96-well plate to remove the dowex suspension. 30 μL of the filtered solution was then transferred to the wells of an Opti-plate (Perkin Elmer) 96 well assay plate and 120 μl of Microscint 40 scintillation fluid was added. The plate was then placed on an orbital shaker for 10 min at high speed (900 RPM) to mix the sample with scintillation fluid prior to quantitation using a plate based scintillation counter (Top-Count).
# (§6) The % increase in counts in the presence of test compound at a particular concentration indicates the % increase in enzyme activity at that concentration.
# T1 sequence (Q07343 1-564 isoform Q07343-2): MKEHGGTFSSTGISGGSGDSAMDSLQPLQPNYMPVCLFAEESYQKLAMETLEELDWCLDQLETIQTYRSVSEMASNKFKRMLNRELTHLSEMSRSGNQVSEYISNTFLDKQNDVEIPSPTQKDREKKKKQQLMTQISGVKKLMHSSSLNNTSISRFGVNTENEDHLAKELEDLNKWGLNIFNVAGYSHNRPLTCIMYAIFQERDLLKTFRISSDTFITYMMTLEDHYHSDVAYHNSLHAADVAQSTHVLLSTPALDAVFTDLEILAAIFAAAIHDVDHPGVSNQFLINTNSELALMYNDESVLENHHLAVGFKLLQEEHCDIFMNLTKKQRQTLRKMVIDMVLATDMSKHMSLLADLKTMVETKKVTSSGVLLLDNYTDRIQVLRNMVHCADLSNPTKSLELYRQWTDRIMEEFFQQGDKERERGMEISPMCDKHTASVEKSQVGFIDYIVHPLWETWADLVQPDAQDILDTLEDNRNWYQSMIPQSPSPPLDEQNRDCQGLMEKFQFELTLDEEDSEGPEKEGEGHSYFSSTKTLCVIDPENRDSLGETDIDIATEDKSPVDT
row,% increase in PDE4B2 activity at 30 μM,Structure (SMILES)
1,3.4%,"CCn1nc(-c2ccc(Cl)c(OC)c2)nc1CC(=O)NCc1cc(Cl)cc(Cl)c1 [Example 29, 2-[3-(4-Chloro-3-methoxyphenyl)-1-ethyl-1H-1,2,4-triazol-5-yl]-N-[(3,5-dichlorophenyl)methyl]acetamide]"
2,−9.4%,"CCn1nc(-c2ccc(Cl)c(OCCOC)c2)nc1CC(=O)NCc1cc(Cl)cc(Cl)c1 [Example 33, 2-{3-[4-Chloro-3-(2-methoxyethoxy)phenyl]-1-ethyl-1H-1,2,4-triazol-5-yl}-N-[(3,5-dichlorophenyl)methyl]acetamide]"
3,1.6%,"CCn1nc(-c2ccc(Cl)c(OC(C)C)c2)nc1CC(=O)N[C@H]1CCOc2ccc(Cl)cc21 [Example 40, N-[(4S)-6-Chloro-3,4-dihydro-2H-1-benzopyran-4-yl]-2-[3-(4-chloro-3-isopropyloxyphenyl)-1-ethyl-1H-1,2,4-triazol-5-yl]acetamide]"

# Biological target: T2, PDE4D5 (Homo sapiens, UniProt Q08499)
# T2 construct: stably expressed the full-length human PDE4D5, PDE4B1 and PDE4A4 long isoforms; made in house
# T2 sequence (Q08499 1-745 isoform Q08499-6): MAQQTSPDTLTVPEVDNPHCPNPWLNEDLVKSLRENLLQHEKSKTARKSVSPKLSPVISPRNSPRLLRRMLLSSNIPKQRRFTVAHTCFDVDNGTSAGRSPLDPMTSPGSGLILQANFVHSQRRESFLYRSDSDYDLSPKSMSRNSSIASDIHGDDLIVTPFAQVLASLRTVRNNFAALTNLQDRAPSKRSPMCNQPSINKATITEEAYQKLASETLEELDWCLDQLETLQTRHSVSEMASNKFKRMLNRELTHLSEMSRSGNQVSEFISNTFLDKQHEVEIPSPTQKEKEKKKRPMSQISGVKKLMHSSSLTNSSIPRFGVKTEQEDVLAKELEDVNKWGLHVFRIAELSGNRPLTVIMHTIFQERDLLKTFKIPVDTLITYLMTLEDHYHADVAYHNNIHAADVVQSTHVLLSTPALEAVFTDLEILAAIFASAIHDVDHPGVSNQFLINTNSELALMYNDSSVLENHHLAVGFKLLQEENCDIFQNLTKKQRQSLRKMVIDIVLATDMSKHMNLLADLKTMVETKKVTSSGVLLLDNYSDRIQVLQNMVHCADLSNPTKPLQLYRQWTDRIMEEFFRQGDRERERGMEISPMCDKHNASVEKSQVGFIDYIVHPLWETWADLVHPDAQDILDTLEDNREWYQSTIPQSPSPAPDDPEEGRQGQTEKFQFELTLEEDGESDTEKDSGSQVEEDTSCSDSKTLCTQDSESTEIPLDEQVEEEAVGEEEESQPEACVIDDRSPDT
# Assay: PDE assay, [3H]cAMP hydrolysis by HEK-PDE4D5 cell lysate cytosol fraction
# Format: biochemical
# Details: 30 μM; mean % increase in counts over basal activity
# Procedure: as §1, §2, §3, §4, §5, §6
row,Structure (SMILES),activation at 30 µM
1,"CCn1nc(-c2ccc(Cl)c(OCCOC)c2)nc1CC(=O)NCc1cc(Cl)cc(Cl)c1 [Example 33, 2-{3-[4-Chloro-3-(2-methoxyethoxy)phenyl]-1-ethyl-1H-1,2,4-triazol-5-yl}-N-[(3,5-dichlorophenyl)methyl]acetamide]",82.3%
2,"CCn1nc(-c2ccc(Cl)c(F)c2)nc1C(F)(F)C(=O)NCc1cc(Cl)cc(Cl)c1 [Example 50, 2-[3-(4-Chloro-3-fluorophenyl)-1-ethyl-1H-1,2,4-triazol-5-yl]-N-[(3,5-dichlorophenyl)methyl]-2,2-difluoroacetamide]",36.7%
3,"CCn1nc(-c2ccc(Cl)c(F)c2)nc1C(F)(F)C(=O)NCc1ccc2[nH]c(C)nc2c1 [Example 52, 2-[3-(4-Chloro-3-fluorophenyl)-1-ethyl-1H-1,2,4-triazol-5-yl]-2,2-difluoro-N-[(2-methyl-1H-1,3-benzimidazol-5-yl)methyl]acetamide]",73.8%
4,"COC(=O)Cn1nc(-c2ccc(Cl)c(F)c2)nc1CC(=O)NCc1cc(Cl)cc(Cl)c1 [Example 54, Methyl 2-[3-(4-chloro-3-fluorophenyl)-5-({[(3,5-dichlorophenyl)methyl]carbamoyl}methyl)-1H-1,2,4-triazol-1-yl]acetate]",97.2%
5,"CCOC(=O)CCCn1nc(-c2ccc(Cl)c(F)c2)nc1CC(=O)NCc1cc(Cl)cc(Cl)c1 [Example 56, Ethyl 4-[3-(4-chloro-3-fluorophenyl)-5-({[(3,5-dichlorophenyl)methyl]carbamoyl}methyl)-1H-1,2,4-triazol-1-yl]butanoate]",155%
6,"O=C(O)CCn1nc(-c2ccc(Cl)c(F)c2)nc1CC(=O)NCc1cc(Cl)cc(Cl)c1 [Example 58, 3-[3-(4-Chloro-3-fluorophenyl)-5-({[(3,5-dichlorophenyl)methyl]carbamoyl}methyl)-1H-1,2,4-triazol-1-yl]propanoic acid]",128%
7,"O=C(Cc1nc(-c2ccc(Cl)c(F)c2)nn1CC1CC1)N[C@H]1CCOc2ccc(Cl)cc21 [Example 78, N-[(4S)-6-Chloro-3,4-dihydro-2H-1-benzopyran-4-yl]-2-[3-(4-chloro-3-fluorophenyl)-1-(cyclopropylmethyl)-1H-1,2,4-triazol-5-yl]acetamide]",79.1%
8,"CCc1cc(CNC(=O)Cc2nc(-c3ccc(Cl)c(F)c3)nn2CC)cc(CC)n1 [Example 80, 2-[3-(4-Chloro-3-fluorophenyl)-1-ethyl-1H-1,2,4-triazol-5-yl]-N-[(2,6-diethylpyridin-4-yl)methyl]acetamide]",58.9%
9,"CCn1nc(-c2ccc(Cl)c(F)c2)nc1CC(=O)NCc1ccnc(C(F)(F)F)c1 [Example 83, 2-[3-(4-Chloro-3-fluorophenyl)-1-ethyl-1H-1,2,4-triazol-5-yl]-N-{[2-(trifluoromethyl)pyridin-4-yl]methyl}acetamide]",89.6%
10,"CCn1nc(-c2ccc(Cl)c(F)c2)nc1CC(=O)NC1(c2cc(C)nc(C)c2)CC1 [Example 86, 2-[3-(4-Chloro-3-fluorophenyl)-1-ethyl-1H-1,2,4-triazol-5-yl]-N-[1-(2,6-dimethylpyridin-4-yl)cyclopropyl]acetamide]",37.3%

# Now from value to compound:
row,activation at 30 µM,Structure (SMILES)
1,104%,"CCn1nc(-c2ccc(Cl)c(OC)c2)nc1CC(=O)NCc1cc(Cl)cc(Cl)c1 [Example 29, 2-[3-(4-Chloro-3-methoxyphenyl)-1-ethyl-1H-1,2,4-triazol-5-yl]-N-[(3,5-dichlorophenyl)methyl]acetamide]"
2,81.6%,"CCn1nc(-c2ccc(Cl)c(OC(C)C)c2)nc1CC(=O)NCc1ccc2[nH]ncc2c1 [Example 38, 2-[3-(4-Chloro-3-isopropyloxyphenyl)-1-ethyl-1H-1,2,4-triazol-5-yl]-N-[(1H-indazol-5-yl)methyl]acetamide]"
3,48.5%,"CCn1nc(-c2ccc(Cl)c(OC(C)C)c2)nc1CC(=O)N[C@H]1CCOc2ccc(Cl)cc21 [Example 40, N-[(4S)-6-Chloro-3,4-dihydro-2H-1-benzopyran-4-yl]-2-[3-(4-chloro-3-isopropyloxyphenyl)-1-ethyl-1H-1,2,4-triazol-5-yl]acetamide]"
4,40%,"CCn1nc(-c2ccc(Cl)c(OC(C)C)c2)nc1CC(=O)N[C@H]1CCc2ncccc21 [Example 42, 2-[3(4-Chloro-3-isopropyloxyphenyl)-1-ethyl-1H-1,2,4-triazol-5-yl]-N-[(5S)-5H,6H,7H-cyclopenta[b]pyridin-5-yl]acetamide]"
5,45%,CC(C)Oc1cc(-c2nc(CC(=O)N[C@H]3CCc4ccccc43)n(C)n2)ccc1Cl [Example 44]
6,26.2%,"CC(C)Oc1cc(-c2nc(CC(=O)NCc3cccc(F)c3)n(C)n2)ccc1Cl [Example 46, 2-[3-(4-Chloro-3-isopropyloxyphenyl)-1-methyl-1H-1,2,4-triazol-5-yl]-N-[(3-fluorophenyl)methyl]acetamide]"
7,45.2%,"CC(C)Oc1cc(-c2nc(CC(=O)N[C@H]3CCOc4ccccc43)n(C)n2)ccc1Cl [Example 48, 2-[3-(4-Chloro-3-isopropyloxyphenyl)-1-methyl-1H-1,2,4-triazol-5-yl]-N-[(4S)-3,4-dihydro-2H-1-benzopyran-4-yl]acetamide]"
8,49.8%,"CCn1nc(-c2ccc(Cl)c(F)c2)nc1CC(=O)N[C@@H]1c2ccccc2C[C@@H]1O [Example 62, 2-[3-(4-Chloro-3-fluorophenyl)-1-ethyl-1H-1,2,4-triazol-5-yl]-N-[(1R,2S)-2-hydroxy-2,3-dihydro-1H-inden-1-yl]acetamide]"
9,92.1%,"CCn1nc(-c2ccc(Cl)c(F)c2)nc1CC(=O)NC1Cc2ccccc2C1 [Example 66, 2-[3-(4-Chloro-3-fluorophenyl)-1-ethyl-1H-1,2,4-triazol-5-yl]-N-(2,3-dihydro-1H-inden-2-yl)acetamide]"
10,51.3%,"CCn1nc(-c2ccc(Cl)c(F)c2)nc1CC(=O)N[C@H]1C[C@H](O)c2ccccc21 [Example 68, 2-[3-(4-Chloro-3-fluorophenyl)-1-ethyl-1H-1,2,4-triazol-5-yl]-N-[(1S,3S)-3-hydroxy-2,3-dihydro-1H-inden-1-yl]acetamide]"
11,92%,"O=C(Cc1nc(-c2ccc(Cl)c(F)c2)nn1CC1CC1)N[C@H]1CCc2ccccc21 [Example 72, 2-[3-(4-Chloro-3-fluorophenyl)-1-(cyclopropylmethyl)-1H-1,2,4-triazol-5-yl]-N-[(1S)-2,3-dihydro-1H-inden-1-yl]acetamide]"
12,55.3%,"CCn1nc(-c2ccc(Cl)c(F)c2)nc1CC(=O)N[C@H]1CCOc2ccccc21 [Example 74, 2-[3-(4-Chloro-3-fluorophenyl)-1-ethyl-1H-1,2,4-triazol-5-yl]-N-[(4S)-3,4-dihydro-2H-1-benzopyran-4-yl]acetamide]"
13,34.3%,"CCn1nc(-c2ccc(Cl)c(OC(C)C)c2)nc1CC(=O)NCc1cc(C)cc(C)n1 [Example 82, 2-[3-(4-Chloro-3-isopropyloxyphenyl)-1-ethyl-1H-1,2,4-triazol-5-yl]-N-[(4,6-dimethylpyridin-2-yl)methyl]acetamide]"
14,32.2%,"CCn1nc(-c2ccc(Cl)c(F)c2)nc1CC(=O)NCc1ccnc(C(F)F)c1 [Example 84, 2-[3-(4-Chloro-3-fluorophenyl)-1-ethyl-1H-1,2,4-triazol-5-yl]-N-{[2-(difluoromethyl)pyridin-4-yl]methyl}acetamide]"
